Reference: ChEMBL document CHEMBL4831503, “Design, synthesis, in vitro and in vivo anti-respiratory syncytial virus (RSV) activity of novel oxizine fused benzimidazole derivatives” (Eur J Med Chem, 2021)
Calls of active or inactive are those of the source. The calls are words filed in the database; no cut-off is given here.

What was measured:
[1] = tested on: Respiratory syncytial virus; assay: Antiviral activity against Respiratory syncytial virus infected in human HEp-2 cells assessed as inhibition of virus infected cells induced lesion formation at 25 uM measured after 60 hrs by microscopic analysis; assay type: functional, organism-based
[2] = tested on: Respiratory syncytial virus; assay: Antiviral activity against Respiratory syncytial virus Long infected in human HEp-2 cells assessed as reduction in viral infection incubated for 60 hrs by MTT assay; assay type: functional, organism-based; conditions: HEp-2, 60 h
[3] = tested on: Respiratory syncytial virus; assay: Antiviral activity against Respiratory syncytial virus Long infected in human A549 cells assessed as reduction in viral infection incubated for 60 hrs by MTT assay; assay type: functional, organism-based; conditions: A549, 60 h
Human orthopneumovirus [4] = assay: Antiviral activity against Respiratory syncytial virus A2 infected in human HEp-2 cells assessed as reduction in viral infection incubated for 60 hrs by MTT assay; assay type: functional, organism-based; conditions: A2, HEp-2, 60 h
Human orthopneumovirus [5] = assay: Antiviral activity against Respiratory syncytial virus A2 infected in African green monkey Vero cells assessed as reduction in viral infection incubated for 60 hrs by MTT assay; assay type: functional, organism-based
HEp-2 [6] = assay: Induction of apoptosis in human HEp-2 cells assessed as early apoptotic cells at 25 uM measured after 60 hrs by Annexin V-FITC/PI staining based flow cytometry analysis (reference value: 0.1%); assay type: functional
HEp-2 [7] = assay: Induction of apoptosis in human HEp-2 cells assessed as late apoptotic cells at 25 uM measured after 60 hrs by Annexin V-FITC/PI staining based flow cytometry analysis (reference value: 1.6%); assay type: functional
[8] = tested on: Respiratory syncytial virus; assay: Inhibition of RSV induced apoptosis in human HEp-2 cells assessed as reduction in PARP cleavage measured after 48 hrs by Western blot analysis; assay type: functional, organism-based
[9] = tested on: Respiratory syncytial virus; assay: Inhibition of RSV induced apoptosis in human HEp-2 cells assessed as reduction in cleaved caspase-7 expression measured after 48 hrs by Western blot analysis; assay type: functional, organism-based
[10] = tested on: Respiratory syncytial virus; assay: Inhibition of RSV induced apoptosis in human HEp-2 cells assessed as reduction in cleaved caspase-9 expression measured after 48 hrs by Western blot analysis; assay type: functional, organism-based
[11] = tested on: Respiratory syncytial virus; assay: Inhibition of RSV induced apoptosis in human HEp-2 cells assessed as reduction in cleaved caspase-3 expression measured after 60 hrs by Western blot analysis; assay type: functional, organism-based
[12] = Inhibition of RSV induced ROS production in human HEp-2 cells assessed as reduction in accumulation of ROS-positive cells at 25 uM measured after 36 hrs by DCHF-DA staining based flow cytometry analysis (reference value: 82.2%); assay type: functional, Respiratory syncytial virus; design: scale not given: the % may be the effect or the level left
HEp-2 [13] = assay: Induction of ROS production in human HEp-2 cells assessed as accumulation of ROS-positive cells at 25 uM measured after 36 hrs by DCHF-DA staining based flow cytometry analysis (reference value: 48.2%); assay type: functional
[14] = tested on: Respiratory syncytial virus; assay: Antiviral activity against RSV infected in human HEp-2 cells assessed as decrease in virus induced RIG-1 gene expression measured after 48 hrs by RT-PCR analysis; assay type: functional, organism-based
[15] = tested on: Respiratory syncytial virus; assay: Antiviral activity against RSV infected in human HEp-2 cells assessed as decrease in virus induced TRAF3 gene expression measured after 48 hrs by RT-PCR analysis; assay type: functional, organism-based
[16] = tested on: Respiratory syncytial virus; assay: Antiviral activity against RSV infected in human HEp-2 cells assessed as decrease in virus induced IRF3 gene expression measured after 48 hrs by RT-PCR analysis; assay type: functional, organism-based
[17] = tested on: Respiratory syncytial virus; assay: Antiviral activity against RSV Long infected in BALB/c mouse assessed as reduction in lung tissue damage by measuring lung index at 25 to 100 mg/kg/day measured after 2 days of virus infection; assay type: functional, organism-based; conditions: dose 25-100 mg/kg/day, time 2.0 day
[18] = tested on: Respiratory syncytial virus; assay: Antiviral activity against RSV Long infected in BALB/c mouse assessed as reduction in lung tissue damage by measuring lung index at 25 to 100 mg/kg/day measured after 4 to 6 days of virus infection; assay type: functional, organism-based; conditions: dose 25-100 mg/kg/day, time 4-6 day
[19] = tested on: Respiratory syncytial virus; assay: Antiviral activity against RSV Long infected in BALB/c mouse assessed as improvement in lung congestion at 25 to 100 mg/kg/day observed on day 6 after infection by H and E staining based microscopic analysis; assay type: functional, organism-based; conditions: dose 25-100 mg/kg/day, time 6.0 day
[20] = tested on: Respiratory syncytial virus; assay: Antiviral activity against RSV Long infected in BALB/c mouse assessed as lung edema at 25 mg/kg/day observed on day 6 after infection by H and E staining based microscopic analysis; assay type: functional, organism-based; conditions: time 6.0 day
[21] = tested on: Respiratory syncytial virus; assay: Antiviral activity against RSV infected in BALB/c mouse assessed as inhibition of viral replication by measuring RSV-M gene expression in lung after 2 to 6 days post infection by RT-PCR analysis; assay type: functional, organism-based; conditions: time 2-6 day
[22] = tested on: Respiratory syncytial virus; assay: Antiviral activity against RSV infected in BALB/c mouse assessed as downregulation of IRF3 expression in lung tissue infected with RSV at 25 to 100 mg/kg/day measured after 2 to 4 days post infection by RT-PCR analysis; assay type: functional, organism-based; conditions: dose 25-100 mg/kg/day, time 2-4 day
[23] = tested on: Respiratory syncytial virus; assay: Antiviral activity against RSV infected in BALB/c mouse assessed as downregulation of IL-6 expression in lung tissue infected with RSV at 25 to 100 mg/kg/day measured after 2 days post infection by RT-PCR analysis; assay type: functional, organism-based; conditions: dose 25-100 mg/kg/day, time 2.0 day
[24] = tested on: Respiratory syncytial virus; assay: Antiviral activity against RSV infected in BALB/c mouse assessed as downregulation of IL-8 expression in lung tissue infected with RSV at 25 to 100 mg/kg/day measured after 2 to 6 days post infection by RT-PCR analysis; assay type: functional, organism-based; conditions: dose 25-100 mg/kg/day, time 2-6 day
[25] = tested on: Respiratory syncytial virus; assay: Antiviral activity against RSV infected in BALB/c mouse assessed as downregulation of IL-10 expression in lung tissue infected with RSV at 25 to 100 mg/kg/day measured after 2 to 6 days post infection by RT-PCR analysis; assay type: functional, organism-based; conditions: dose 25-100 mg/kg/day, time 2-6 day

Cc1c(Br)cc2nc3n(c2c1Br)[C@H]1OC[C@@H](O)[C@H]1OC3
Activity [1]: Active
EC50 [2]: 9.49 µM
EC50 [3]: 13.3 µM
EC50 (Human orthopneumovirus [4]): 12.8 µM
EC50 (Human orthopneumovirus [5]): 15.5 µM
Activity (HEp-2 [6]): 0.4%
Activity (HEp-2 [7]): 2.4%
inhibition [8]: Active
inhibition [9]: Active
inhibition [10]: Active
inhibition [11]: Active
Activity [12]: 60.7%
Activity (HEp-2 [13]): 53.1%
Activity [14]: Dose-Dependent Effect
Activity [15]: Dose-Dependent Effect
Activity [16]: Dose-Dependent Effect
Activity [17]: Active
Activity [18]: Active
Activity [19]: Active
Activity [20]: Active
Activity [21]: Dose-Dependent Effect
Activity [22]: Active
Activity [23]: Active
Activity [24]: Active
Activity [25]: Active
